# Data: PubChem BioAssay AID1963441 (Molecular Pharmacology Branch, DTP, NCI, 2024)
# Tested on: NCI-H1876 complex spheroid growth, % test/control
# Test: Anticancer human tumor NCI-H1876 cell line growth inhibition [Asc];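 note: compound exposure lasted 7 days starting three days after seeding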;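 for viability, T/C: 100% = DMSO vehicle control wells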
# Conditions: for IC50: curve of first compound; for viability, T/C: stronger effect = lower value
# Procedure, shortened: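 Complex spheroids combining tumor cells with HUVEC endothelial cells and human MSCs, at 37 degrees C, 5% CO2; agents tested alone or combined, half-log dilutions from at or near clinical Cmax, or 10 microM if Cmax unknown.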
smiles,measurement,setting,value
NC(=O)C(=Cn1cnc(-c2cc(C(F)(F)F)cc(C(F)(F)F)c2)n1)c1cncnc1 + CCN1C(C(=O)NC23CCC(C(=O)O)(CC2)CC3)C(c2cccc(Cl)c2F)C2(C(=O)Nc3cc(Cl)ccc32)C12CCCCC2,IC50,second compound 0.00949 µM,> 300 nM
same,IC50,second compound 0.03 µM,> 300 nM
same,IC50,second compound 0.0949 µM,> 300 nM
same,IC50,second compound 0.3 µM,> 300 nM
same,IC50,second compound 0.949 µM,> 300 nM
same,IC50,second compound 3 µM,> 300 nM
same,"viability, T/C","second compound 0.00949 µM, first compound 0.000949 µM",104%
same,"viability, T/C","second compound 0.00949 µM, first compound 0.003 µM",102%
same,"viability, T/C","second compound 0.00949 µM, first compound 0.00949 µM",115%
same,"viability, T/C","second compound 0.00949 µM, first compound 0.03 µM",94%
same,"viability, T/C","second compound 0.00949 µM, first compound 0.0949 µM",100%
same,"viability, T/C","second compound 0.00949 µM, first compound 0.3 µM",64.8%
same,"viability, T/C","second compound 0.03 µM, first compound 0.000949 µM",101%
same,"viability, T/C","second compound 0.03 µM, first compound 0.003 µM",99.3%
same,"viability, T/C","second compound 0.03 µM, first compound 0.00949 µM",96.6%
same,"viability, T/C","second compound 0.03 µM, first compound 0.03 µM",101%
same,"viability, T/C","second compound 0.03 µM, first compound 0.0949 µM",96.2%
same,"viability, T/C","second compound 0.03 µM, first compound 0.3 µM",63.7%
same,"viability, T/C","second compound 0.0949 µM, first compound 0.000949 µM",101%
same,"viability, T/C","second compound 0.0949 µM, first compound 0.003 µM",102%
same,"viability, T/C","second compound 0.0949 µM, first compound 0.00949 µM",100%
same,"viability, T/C","second compound 0.0949 µM, first compound 0.03 µM",98.5%
same,"viability, T/C","second compound 0.0949 µM, first compound 0.0949 µM",102%
same,"viability, T/C","second compound 0.0949 µM, first compound 0.3 µM",71.2%
same,"viability, T/C","second compound 0.3 µM, first compound 0.000949 µM",103%
same,"viability, T/C","second compound 0.3 µM, first compound 0.003 µM",104%
same,"viability, T/C","second compound 0.3 µM, first compound 0.00949 µM",103%
same,"viability, T/C","second compound 0.3 µM, first compound 0.03 µM",103%
same,"viability, T/C","second compound 0.3 µM, first compound 0.0949 µM",105%
same,"viability, T/C","second compound 0.3 µM, first compound 0.3 µM",69.6%
same,"viability, T/C","second compound 0.949 µM, first compound 0.000949 µM",124%
same,"viability, T/C","second compound 0.949 µM, first compound 0.003 µM",104%
same,"viability, T/C","second compound 0.949 µM, first compound 0.00949 µM",104%
same,"viability, T/C","second compound 0.949 µM, first compound 0.03 µM",114%
same,"viability, T/C","second compound 0.949 µM, first compound 0.0949 µM",101%
same,"viability, T/C","second compound 0.949 µM, first compound 0.3 µM",68.5%
same,"viability, T/C","second compound 3 µM, first compound 0.000949 µM",109%
same,"viability, T/C","second compound 3 µM, first compound 0.003 µM",97.4%
same,"viability, T/C","second compound 3 µM, first compound 0.00949 µM",104%
same,"viability, T/C","second compound 3 µM, first compound 0.03 µM",94.8%
same,"viability, T/C","second compound 3 µM, first compound 0.0949 µM",96.1%
same,"viability, T/C","second compound 3 µM, first compound 0.3 µM",55%
NC1CCC(NC2CC2c2ccccc2)CC1 (centres undefined) + CCN1C(C(=O)NC23CCC(C(=O)O)(CC2)CC3)C(c2cccc(Cl)c2F)C2(C(=O)Nc3cc(Cl)ccc32)C12CCCCC2,IC50,second compound 0.00949 µM,> 100 nM
same,IC50,second compound 0.03 µM,> 100 nM
same,IC50,second compound 0.0949 µM,> 100 nM
same,IC50,second compound 0.3 µM,> 100 nM
same,IC50,second compound 0.949 µM,> 100 nM
same,IC50,second compound 3 µM,> 100 nM
same,"viability, T/C","second compound 0.00949 µM, first compound 0.000316 µM",103%
same,"viability, T/C","second compound 0.00949 µM, first compound 0.001 µM",105%
same,"viability, T/C","second compound 0.00949 µM, first compound 0.00316 µM",105%
same,"viability, T/C","second compound 0.00949 µM, first compound 0.01 µM",113%
same,"viability, T/C","second compound 0.00949 µM, first compound 0.0316 µM",108%
same,"viability, T/C","second compound 0.00949 µM, first compound 0.1 µM",119%
same,"viability, T/C","second compound 0.03 µM, first compound 0.000316 µM",112%
same,"viability, T/C","second compound 0.03 µM, first compound 0.001 µM",107%
same,"viability, T/C","second compound 0.03 µM, first compound 0.00316 µM",110%
same,"viability, T/C","second compound 0.03 µM, first compound 0.01 µM",117%
same,"viability, T/C","second compound 0.03 µM, first compound 0.0316 µM",120%
same,"viability, T/C","second compound 0.03 µM, first compound 0.1 µM",110%
same,"viability, T/C","second compound 0.0949 µM, first compound 0.000316 µM",106%
same,"viability, T/C","second compound 0.0949 µM, first compound 0.001 µM",117%
same,"viability, T/C","second compound 0.0949 µM, first compound 0.00316 µM",113%
same,"viability, T/C","second compound 0.0949 µM, first compound 0.01 µM",113%
same,"viability, T/C","second compound 0.0949 µM, first compound 0.0316 µM",117%
same,"viability, T/C","second compound 0.0949 µM, first compound 0.1 µM",112%
same,"viability, T/C","second compound 0.3 µM, first compound 0.000316 µM",117%
same,"viability, T/C","second compound 0.3 µM, first compound 0.001 µM",116%
same,"viability, T/C","second compound 0.3 µM, first compound 0.00316 µM",123%
same,"viability, T/C","second compound 0.3 µM, first compound 0.01 µM",124%
same,"viability, T/C","second compound 0.3 µM, first compound 0.0316 µM",118%
same,"viability, T/C","second compound 0.3 µM, first compound 0.1 µM",108%
same,"viability, T/C","second compound 0.949 µM, first compound 0.000316 µM",118%
same,"viability, T/C","second compound 0.949 µM, first compound 0.001 µM",121%
same,"viability, T/C","second compound 0.949 µM, first compound 0.00316 µM",134%
same,"viability, T/C","second compound 0.949 µM, first compound 0.01 µM",113%
same,"viability, T/C","second compound 0.949 µM, first compound 0.0316 µM",133%
same,"viability, T/C","second compound 0.949 µM, first compound 0.1 µM",116%
same,"viability, T/C","second compound 3 µM, first compound 0.000316 µM",122%
same,"viability, T/C","second compound 3 µM, first compound 0.001 µM",112%
same,"viability, T/C","second compound 3 µM, first compound 0.00316 µM",111%
same,"viability, T/C","second compound 3 µM, first compound 0.01 µM",126%
same,"viability, T/C","second compound 3 µM, first compound 0.0316 µM",125%
same,"viability, T/C","second compound 3 µM, first compound 0.1 µM",111%
